From ChEMBL document CHEMBL1201862, “PubChem BioAssay data set” (2004)
Active and inactive are the calls of the source.

Legend:
[1] = inhibition of ARNT PAS-B/TACC3 complex formation – biochemical, AlphaScreen, cherry-picked samples, confirmation (AID 651703); assay type: functional, Homo sapiens;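 further: His-tagged ARNT PAS-B domain paired with GST-TACC3 E629A dimer coactivator fragment; potency of inhibitors that break up the complex and lower AlphaScreen signal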
[2] = Counterscreen for AddAB inhibitors: absorbance-based bacterial cell-based high throughput dose response assay for inhibitors of bacterial viability. [Related pubchem assays (depositor defined):AID435030, AID449728, AID449731, AID488942, AID488955, AID488956]; assay type: functional
[3] = molecular target: T1, Neuropeptide Y receptor type 1 (Homo sapiens, UniProt P25929); experiment: Fluorescence-based dose response cell-based high-throughput screening assay for agonists of NPY-Y1. [Related pubchem assays: 1697 (Screening assay (NPY-Y1 agonists).), 1359 (Screening assay (NPY-Y2 potentiators or agonists).), 1304 (Screening assay (NPY-Y1 potentiators or agonists).), 1704 (Screening assay (CNGC inhibitors).), 1791 (Summary AID.)]; assay type: functional
T1 sequence (P25929 whole entry): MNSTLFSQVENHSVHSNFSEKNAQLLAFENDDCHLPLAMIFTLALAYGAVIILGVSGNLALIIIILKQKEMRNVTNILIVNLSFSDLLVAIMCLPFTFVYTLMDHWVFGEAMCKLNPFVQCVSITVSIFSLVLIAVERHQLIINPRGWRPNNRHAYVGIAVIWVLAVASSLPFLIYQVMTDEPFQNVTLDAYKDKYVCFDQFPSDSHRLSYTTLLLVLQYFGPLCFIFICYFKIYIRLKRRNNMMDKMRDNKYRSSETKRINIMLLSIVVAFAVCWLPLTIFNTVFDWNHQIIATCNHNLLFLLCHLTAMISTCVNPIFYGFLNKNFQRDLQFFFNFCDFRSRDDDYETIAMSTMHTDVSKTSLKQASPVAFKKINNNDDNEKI

[4] = molecular target: STE20-like serine/threonine-protein kinase (Homo sapiens, UniProt Q9H2G2); assay type: functional
[5] = molecular target: Mitogen-activated protein kinase 10 (Homo sapiens, UniProt P53779); experiment: Navigating the Kinome. Panel member name: MAPK10; assay type: functional
[6] = molecular target: Serine/threonine-protein kinase Chk2 (Homo sapiens, UniProt O96017); assay type: functional;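 further: CHEK2 entry within a kinome-wide screening panel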
Activin receptor type-1 = Activin receptor type-1 (Homo sapiens, UniProt Q04771); experiment: Navigating the Kinome. Panel member name: ACVR1; assay type: functional
Sequence of Activin receptor type-1 (Q04771 whole entry): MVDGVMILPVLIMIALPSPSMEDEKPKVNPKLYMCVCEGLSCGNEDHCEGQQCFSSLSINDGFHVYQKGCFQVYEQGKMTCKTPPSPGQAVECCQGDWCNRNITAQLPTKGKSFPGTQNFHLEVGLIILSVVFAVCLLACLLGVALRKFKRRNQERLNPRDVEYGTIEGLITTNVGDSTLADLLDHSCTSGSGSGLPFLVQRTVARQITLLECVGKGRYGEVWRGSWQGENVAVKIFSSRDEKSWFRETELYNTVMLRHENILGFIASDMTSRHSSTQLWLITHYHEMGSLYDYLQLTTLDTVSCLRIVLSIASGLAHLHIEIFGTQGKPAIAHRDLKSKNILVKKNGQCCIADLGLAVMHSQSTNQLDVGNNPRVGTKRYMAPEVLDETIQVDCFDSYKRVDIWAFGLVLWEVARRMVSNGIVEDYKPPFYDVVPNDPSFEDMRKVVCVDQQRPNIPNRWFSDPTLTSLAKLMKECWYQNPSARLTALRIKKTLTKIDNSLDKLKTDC

Sequence of Mitogen-activated protein kinase 10 (P53779 whole entry): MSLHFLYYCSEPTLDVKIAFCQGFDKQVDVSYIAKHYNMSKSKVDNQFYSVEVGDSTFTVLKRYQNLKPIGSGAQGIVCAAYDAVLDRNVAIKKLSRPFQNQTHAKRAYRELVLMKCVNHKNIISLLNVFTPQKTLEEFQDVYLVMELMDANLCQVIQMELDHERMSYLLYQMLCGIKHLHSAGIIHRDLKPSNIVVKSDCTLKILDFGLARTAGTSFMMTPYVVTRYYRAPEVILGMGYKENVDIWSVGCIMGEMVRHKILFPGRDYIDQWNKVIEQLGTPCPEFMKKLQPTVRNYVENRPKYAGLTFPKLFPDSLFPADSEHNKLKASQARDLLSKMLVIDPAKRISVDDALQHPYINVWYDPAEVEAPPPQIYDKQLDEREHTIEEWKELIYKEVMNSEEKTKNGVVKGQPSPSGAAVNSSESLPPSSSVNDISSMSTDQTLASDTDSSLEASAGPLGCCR
Sequence of STE20-like serine/threonine-protein kinase (Q9H2G2 whole entry): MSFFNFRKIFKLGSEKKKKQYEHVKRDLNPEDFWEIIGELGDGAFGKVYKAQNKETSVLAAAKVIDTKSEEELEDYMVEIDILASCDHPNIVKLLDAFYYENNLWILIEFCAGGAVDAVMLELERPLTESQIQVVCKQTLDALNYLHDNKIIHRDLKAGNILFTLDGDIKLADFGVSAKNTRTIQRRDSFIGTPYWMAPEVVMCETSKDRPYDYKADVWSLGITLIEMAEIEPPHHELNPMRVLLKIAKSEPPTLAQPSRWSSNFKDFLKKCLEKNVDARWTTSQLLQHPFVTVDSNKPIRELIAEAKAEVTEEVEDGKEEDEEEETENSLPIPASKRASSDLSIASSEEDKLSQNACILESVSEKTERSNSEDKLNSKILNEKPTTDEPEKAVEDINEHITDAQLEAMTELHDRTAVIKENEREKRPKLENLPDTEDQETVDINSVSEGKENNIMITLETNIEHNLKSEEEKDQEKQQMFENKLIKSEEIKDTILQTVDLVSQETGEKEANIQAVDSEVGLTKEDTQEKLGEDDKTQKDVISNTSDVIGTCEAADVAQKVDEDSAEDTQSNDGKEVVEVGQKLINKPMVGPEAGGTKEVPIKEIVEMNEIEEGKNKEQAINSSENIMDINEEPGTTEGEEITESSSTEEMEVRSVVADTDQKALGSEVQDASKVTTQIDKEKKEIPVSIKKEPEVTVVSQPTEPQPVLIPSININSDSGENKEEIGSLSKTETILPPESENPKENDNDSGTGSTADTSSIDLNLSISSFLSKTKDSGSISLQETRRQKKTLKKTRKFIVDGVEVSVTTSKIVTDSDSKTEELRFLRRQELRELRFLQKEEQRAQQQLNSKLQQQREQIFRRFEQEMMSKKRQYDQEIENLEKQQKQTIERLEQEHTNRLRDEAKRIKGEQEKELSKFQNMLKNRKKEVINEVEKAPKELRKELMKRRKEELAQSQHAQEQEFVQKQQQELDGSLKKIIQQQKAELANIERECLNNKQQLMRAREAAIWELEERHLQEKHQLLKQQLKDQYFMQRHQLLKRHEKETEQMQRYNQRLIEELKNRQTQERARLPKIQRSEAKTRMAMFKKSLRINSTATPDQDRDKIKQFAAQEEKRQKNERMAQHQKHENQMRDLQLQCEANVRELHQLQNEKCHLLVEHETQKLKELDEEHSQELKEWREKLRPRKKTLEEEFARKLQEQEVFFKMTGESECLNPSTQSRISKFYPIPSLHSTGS
Sequence of Serine/threonine-protein kinase Chk2 (O96017 whole entry): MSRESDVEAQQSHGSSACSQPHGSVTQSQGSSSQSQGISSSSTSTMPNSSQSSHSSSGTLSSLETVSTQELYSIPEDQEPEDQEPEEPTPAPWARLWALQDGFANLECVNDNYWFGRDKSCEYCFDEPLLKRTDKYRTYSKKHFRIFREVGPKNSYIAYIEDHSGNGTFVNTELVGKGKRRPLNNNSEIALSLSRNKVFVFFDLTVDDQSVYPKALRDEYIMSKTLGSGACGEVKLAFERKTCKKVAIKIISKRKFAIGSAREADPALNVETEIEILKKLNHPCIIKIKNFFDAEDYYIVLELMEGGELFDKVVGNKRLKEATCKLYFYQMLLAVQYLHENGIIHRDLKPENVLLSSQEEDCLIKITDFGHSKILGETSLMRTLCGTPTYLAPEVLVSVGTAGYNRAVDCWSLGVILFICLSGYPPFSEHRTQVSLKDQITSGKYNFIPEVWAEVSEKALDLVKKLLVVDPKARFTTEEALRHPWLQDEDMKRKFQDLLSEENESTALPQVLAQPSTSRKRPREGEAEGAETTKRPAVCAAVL

O=C(COC(=O)c1ccc([N+](=O)[O-])s1)NCCc1ccccc1
AC50 [1]: 83.7 µM (active)

COCC/N=c1\scc(-c2cccs2)n1/N=C/c1ccc(O)c(O)c1O
IC50 [2]: > 119 µM (inactive) | EC50 [3]: > 11.8 µM (not active)

OC1CCC(Nc2cc(Cl)nc(-c3c[nH]c4ncccc34)n2)CC1 (configuration not stated)
Ki [4]: 0.126 µM (active) | Ki [5]: > 3.16 µM (inactive) | Ki [6]: 0.398 µM (active) | Ki (Activin receptor type-1): > 3.98 µM (inactive)
